From US8871767B2, “2-arylimidazo[1,2-B]pyridazine, 2-phenylimidazo[1,2-A]pyridine, and 2-phenylimidazo[1,2-A]pyrazine derivatives” (Hengrui (USA) Ltd., priority 2010, dated 2014) come the findings set out here.

Experiment [1] concerns Hedgehog pathway activation on 10T1/2/Smo#3 cells (C3H10T1/2 cells transfected with human Smoothened receptor). Put plainly: Hedgehog pathway activation on 10T1/2/Smo#3 cells measured by ALP activity. Conditions: Mus musculus, C3H 10T1/2, 10T1/2/Smo#3 cells. In kind it is cell-based. A digest of the protocol: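 Inhibition of alkaline phosphatase induction, read fluorometrically from 4-methylumbelliferyl phosphate conversion, gave IC50 values; CellTiter-Blue tracked viability in parallel. Cells were the human Smo-transfected 10T1/2/Smo#3 pool, stimulated by 10-20% hShh conditioned medium or the Smo agonist SAG (500 nM).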

Experiment [2] deals with Hedgehog pathway activation (GLi-luciferase reporter) in Shh Light II reporter cells. Put plainly: Hedgehog pathway activation on Shh Light II reporter cells measured by luciferase activity. In kind it is cell-based. Conditions: Mus musculus, Shh Light II. A digest of the protocol: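 Shh Light II reporter cells carrying a hedgehog-responsive GLi-luciferase reporter were stimulated either with 500 nM SAG, a direct Smoothened agonist, or with conditioned media containing human Sonic Hedgehog (hShh). Test compounds were evaluated for blocking this pathway activation, quantified by luciferase activity. Cell viability was monitored in parallel with the Celltiter-Blue® assay.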

Setting [3] is: hShh activation, ALP activity, read-out: 10T1/2/Smo#3 ALP activity (hShh Activation).
[4] abbreviates: measured by ALP activity, read-out: ALP (IC50, inhibition of Hedgehog pathway activation).
The mark [5] stands for this setting: SAG activation (500 nM SAG), read-out: Shh Light II luciferase activity (SAG activation).
Where [6] appears, read: hShh activation, read-out: Shh (IC50, inhibition of Hedgehog pathway activation).
The mark [7] stands for this setting: hShh activation, read-out: Shh Light II luciferase activity (hShh activation).

Like-named read-outs stand apart in the source and are kept apart here. Where only a bound is given, the exact number is not on record here.

On to `CCc1ccc(-c2cn3nc(-c4cccnc4C(F)(F)F)ccc3n2)cc1NC(=O)C(C)(C)C` [Example 352, N-(2-ethyl-5-(6-(2-(trifluoromethyl)pyridin-3-yl)imidazo[1,2-b]pyridazin-2-yl)phenyl)pivalamide], for which the IC50 in experiment [1] (setting [3]) is below 300 nM; in experiment [1] (setting [4]), 14 nM; in experiment [2] (setting [5]), below 300 nM; in experiment [2] (setting [6]) it was 11 nM; in experiment [2] (setting [7]), below 300 nM.

With `CC(C)(C)C(=O)Nc1cc(-c2cn3nc(-c4ccccc4OC(F)(F)F)ccc3n2)ccc1C(F)(F)F` [Example 240, N-(5-(6-(2-(trifluoromethoxy)phenyl)imidazo[1,2-b]pyridazin-2-yl)-2-(trifluoromethyl)phenyl)pivalamide], the IC50 in experiment [1] (setting [4]) turned out to be 70 nM; in experiment [2] (setting [6]), 326 nM.

Turning to `Cc1ccc(-c2cn3nc(-c4cc(C#N)ccc4C(F)(F)F)ccc3n2)cc1NC(=O)C(C)(C)C` [compound 596], the values for the IC50 in experiment [1] (setting [4]) and in experiment [2] (setting [6]) were 94 nM and 18 nM, respectively.

For the compound `Cc1ccc(-c2cn3nc(-c4cccnc4C(F)(F)F)ccc3n2)cc1C(=O)NC(C)(C)C` [Example 483, N-tert-butyl-2-methyl-5-(6-(2-(trifluoromethyl)pyridin-3-yl)imidazo[1,2-b]pyridazin-2-yl)benzamide], the IC50 was below 300 nM in experiment [1] (setting [3]); 114 nM in experiment [1] (setting [4]); 300 to 3000 nM in experiment [2] (setting [5]); 72 nM in experiment [2] (setting [6]); below 300 nM in experiment [2] (setting [7]).

Regarding `CCOc1ccc2nc(-c3ccc(C(F)(F)F)c(C(=O)NC(C)(C)C)c3)cn2n1` [Example 211, N-tert-butyl-5-(6-ethoxyimidazo[2,1-f]pyridazin-2-yl)-2-(trifluoromethyl)benzamide], the IC50 in experiment [1] (setting [4]) worked out at 6960 nM; in experiment [2] (setting [6]), 1020 nM.

As for `COc1ccc2nc(-c3ccc(Cl)c(NC(=O)CC(C)C(F)(F)F)c3)cn2n1` (centres unmarked) [Example 120, N-(2-chloro-5-(6-methoxyimidazo[1,2-b]pyridazin-2-yl)phenyl)-4,4,4-trifluoro-3-methylbutanamide], the IC50 in experiment [1] (setting [4]) is 6280 nM; in experiment [2] (setting [6]) it was above 10000 nM.

On to `CC1CCCCC1Oc1ccc2nc(-c3ccc(C(F)(F)F)c(NC(=O)C(C)(C)C)c3)cn2n1` (centres unmarked) [Example 307, N-(5-(6-(2-methylcyclohexyloxy)imidazo[1,2-b]pyridazin-2-yl)-2-(trifluoromethyl)phenyl)pivalamide], for which the IC50 in experiment [1] (setting [4]) was determined as 400 nM; in experiment [2] (setting [6]), 352 nM.

In the case of `CC(C)(C)C(=O)Nc1cc(-c2cn3nc(-c4ccccc4F)ccc3n2)ccc1OC(F)(F)F` [Example 248, N-(5-(6-(2-fluorophenyl)imidazo[1,2-b]pyridazin-2-yl)-2-(trifluoromethoxy)phenyl)pivalamide], the IC50 was below 300 nM in experiment [1] (setting [3]), 231 nM in experiment [1] (setting [4]), 300 to 3000 nM in experiment [2] (setting [5]) and 300 to 3000 nM in experiment [2] (setting [7]).

Take `Cc1ccc(-c2cn3nc(-c4ccc5nonc5c4)ccc3n2)cc1NC(=O)C(C)(C)C` [Example 449, N-(5-(6-(benzo[c][1,2,5]oxadiazol-5-yl)imidazo[1,2-b]pyridazin-2-yl)-2-methylphenyl)pivalamide]: the values for the IC50 in experiment [1] (setting [4]) and in experiment [2] (setting [6]) were 281 nM and 311 nM, respectively.

On to `Cc1ccc(-c2cn3nc(N4CCC(C#N)CC4)ccc3n2)cc1NC(=O)C(C)(C)C` [compound 544], for which the IC50 was determined as 462 nM in experiment [1] (setting [4]) and 224 nM in experiment [2] (setting [6]).

Regarding `Cc1c(-c2ccccc2)nc2ccc(N3CCN(C(=O)c4ccccc4)CC3)nn12` [Example 154, (4-(3-methyl-2-phenylimidazo[1,2-b]pyridazin-6-yl)piperazin-1-yl)(phenyl)methanone], the values for the IC50 in experiment [1] (setting [4]) and in experiment [2] (setting [6]) were 2890 nM and 3400 nM, respectively.

In the case of `CCOc1ccc2nc(-c3ccc(C(F)(F)F)c(S(=O)(=O)NC)c3)cn2n1` [Example 217, 5-(6-ethoxyimidazo[1,2-b]pyridazin-2-yl)-N-methyl-2-(trifluoromethyl)benzenesulfonamide], the IC50 is 535 nM in experiment [1] (setting [4]) and 6600 nM in experiment [2] (setting [6]).

For `FC(F)(F)c1ccc(-c2cn3nc(Cl)ccc3n2)cc1Br` [Example 203, 2-(3-bromo-4-(trifluoromethyl)phenyl)-6-chloroimidazo[1,2-b]pyridazine], the IC50 in experiment [1] (setting [4]) is 9450 nM; in experiment [2] (setting [6]), above 10000 nM.

For `Cc1ccc(-c2cn3nc(-c4cc(Cl)ccc4F)ccc3n2)cc1NC(=O)C(C)(C)C` [Example 262, N-(5-(6-(5-chloro-2-fluorophenyl)imidazo[1,2-b]pyridazin-2-yl)-2-methylphenyl)pivalamide], the figures for the IC50 in experiment [1] (setting [4]) and in experiment [2] (setting [6]) were 103 nM and 342 nM, respectively.

Turning to `CCOC(=O)COc1ccc(C(F)(F)F)c(-c2ccc3nc(-c4ccc(C)c(NC(=O)C(C)(C)C)c4)cn3n2)c1` [Example 477, ethyl 2-(3-(2-(4-methyl-3-pivalamidophenyl)imidazo[1,2-b]pyridazin-6-yl)-4-(trifluoromethyl)phenoxy)acetate], the IC50 stood at 521 nM in experiment [1] (setting [4]) and 247 nM in experiment [2] (setting [6]).

Regarding `NS(=O)(=O)c1cc(-c2cn3nc(-c4cccnc4C(F)(F)F)ccc3n2)ccc1Cl` [Example 697, 2-chloro-5-(6-(2-(trifluoromethyl)pyridin-3-yl)imidazo[1,2-b]pyridazin-2-yl)benzenesulfonamide], the IC50 in experiment [1] (setting [4]) and in experiment [2] (setting [6]) was above 10000 nM in each case.

Take `CC(C)(C)C(=O)Nc1cc(-c2cn3nc(-c4ccncc4)ccc3n2)ccc1C(F)(F)F` [Example 169, N-(5-(6-(pyridin-4-yl)imidazo[1,2-b]pyridazin-2-yl)-2-(trifluoromethyl)phenyl)pivalamide]: the IC50 in experiment [1] (setting [4]) is 423 nM; in experiment [2] (setting [6]), 710 nM.

Regarding `CCc1ccc(-c2cn3nc(-c4cccnc4C(F)(F)F)ccc3n2)cc1NC(=O)C1(C)CC1` [Example 633], the IC50 in experiment [1] (setting [3]), in experiment [2] (setting [5]) and in experiment [2] (setting [7]) was below 300 nM in each case.

Turning to `CCOC1CCN(c2ccc3nc(-c4ccc(C(F)(F)F)c(NC(=O)C(C)(C)C)c4)cn3n2)CC1` [Example 367, N-(5-(6-(4-ethoxypiperidin-1-yl)imidazo[1,2-b]pyridazin-2-yl)-2-(trifluoromethyl)phenyl)pivalamide], the IC50 in experiment [1] (setting [4]) turned out to be 343 nM; in experiment [2] (setting [6]), 312 nM.

As for `CCc1ccc(-c2cn3nc(-c4ccccc4C#N)ccc3n2)cc1NC(=O)C(C)(C)C` [Example 296, N-(5-(6-(2-cyanophenyl)imidazo[1,2-b]pyridazin-2-yl)-2-ethylphenyl)pivalamide], the IC50 in experiment [1] (setting [4]) worked out at 226 nM; in experiment [2] (setting [6]) it was 311 nM.

On to `CCc1ccc(-c2cn3nc(-c4cccnc4C(F)(F)F)ccc3n2)cc1NC(=O)CC(F)(F)F` [Example 692, N-(2-ethyl-5-(6-(2-(trifluoromethyl)pyridin-3-yl)imidazo[1,2-b]pyridazin-2-yl)phenyl)-3,3,3-trifluoropropanamide], for which the results for the IC50 in experiment [1] (setting [4]) and in experiment [2] (setting [6]) were 951 nM and 416 nM, respectively.

Take `O=C(Nc1cc(-c2cn3nc(-c4cccnc4C(F)(F)F)ccc3n2)ccc1Cl)NC1CC1` [Example 654, 1-(2-chloro-5-(6-(2-(trifluoromethyl)pyridin-3-yl)imidazo[1,2-b]pyridazin-2-yl)phenyl)-3-cyclopropylurea]: the IC50 in experiment [1] (setting [4]) came to 764 nM; in experiment [2] (setting [6]), 228 nM.

`CCc1ccc(-c2cn3nc(-c4cccnc4C(F)(F)F)ccc3n2)cc1NC(=O)C(C)(C)CC` [Example 689, N-(2-ethyl-5-(6-(2-(trifluoromethyl)pyridin-3-yl)imidazo[1,2-b]pyridazin-2-yl)phenyl)-2,2-dimethylbutanamide]: the IC50 in experiment [1] (setting [4]) came out at 188 nM; in experiment [2] (setting [6]), 64 nM.

For `C[C@@H]1CCCC[C@H]1Oc1ccc2nc(-c3ccc(C(F)(F)F)c(NC(=O)C(C)(C)C)c3)cn2n1` [Example 464, N-(5-(6-((1R,2R)-2-methylcyclohexyloxy)imidazo[1,2-b]pyridazin-2-yl)-2-(trifluoromethyl)phenyl)pivalamide], the results for the IC50 in experiment [1] (setting [4]) and in experiment [2] (setting [6]) were 400 nM and 352 nM, respectively.

Take `Cc1ccc(-c2cn3nc(-c4ccc(OCCCCCCC(=O)NO)cc4C(F)(F)F)ccc3n2)cc1NC(=O)C(C)(C)C` [Example 417, N-hydroxy-7-(4-(2-(4-methyl-3-pivalamidophenyl)imidazo[1,2-b]pyridazin-6-yl)-3-(trifluoromethyl)phenoxy)heptanamide]: the IC50 in experiment [1] (setting [3]) was 3000 to 30000 nM; in experiment [2] (setting [5]) it was 300 to 3000 nM; in experiment [2] (setting [6]), 380 nM; in experiment [2] (setting [7]), 300 to 3000 nM.

Turning to `Cc1ccc(-c2ccc3nc(-c4ccc(C(F)(F)F)c(NC(=O)C(C)(C)C)c4)cn3n2)cc1` [Example 239, N-(5-(6-p-tolylimidazo[1,2-b]pyridazin-2-yl)-2-(trifluoromethyl)phenyl)pivalamide], the results for the IC50 in experiment [1] (setting [4]) and in experiment [2] (setting [6]) were 335 nM and 523 nM, respectively.

Take `Cc1ccc(-c2cn3nc(-c4cccc(O)c4)ccc3n2)cc1NC(=O)C(C)(C)C` [Example 264, N-(5-(6-(3-hydroxyphenyl)imidazo[1,2-b]pyridazin-2-yl)-2-methylphenyl)pivalamide]: the IC50 in experiment [1] (setting [4]) came to 544 nM; in experiment [2] (setting [6]), 2010 nM.
